According to patent US20060069132A1, “Azolecarboxamide herbicides” (priority 2004, published 2006):

Assays:
woolly cupgrass = assay: Test C pre-/postemergence herbicide test; type: in vivo, Eriochloa villosa; conditions: for Plant response rating, Cupgrass, Woolly / Plant response rating (0 = no effect, 100 = complete control), Cupgrass, Woolly: preemergence
Summary of the method: (§1)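 Pre- and postemergence application, solvent/surfactant formulation; post at 1- to 4-leaf stage (2–18 cm). Greenhouse 12–14 d. Visual rating vs controls, 0 = no effect, 100 = complete control.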

yellow nutsedge = assay: Test C pre-/postemergence herbicide test; type: in vivo, Cyperus esculentus; conditions: for Plant response rating, Nutsedge, Yellow / Plant response rating (0 = no effect, 100 = complete control), Nutsedge, Yellow: preemergence
Summary of the method: as §1

wheat = assay: Test B postemergence herbicide test; type: in vivo, Triticum aestivum; design: key to Wheat plant response rating: 0 = no effect, 100 = complete control
Summary of the method: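 Plants grow to 1- to 4-leaf stage (2–18 cm) for postemergence spraying, or to 2-leaf stage for the paddy test. Formulated compound is applied. Greenhouse holding lasts 13–15 days. Response is scored visually relative to controls, 0 no effect to 100 complete control; a dash means no result.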

eastern black nightshade = assay: Test C pre-/postemergence herbicide test; type: in vivo, Solanum ptycanthum
Summary of the method: as §1

large crabgrass = assay: Test C pre-/postemergence herbicide test; type: in vivo, Digitaria sanguinalis; conditions: for Plant response rating, Crabgrass, Large / Plant response rating (0 = no effect, 100 = complete control), Crabgrass, Large: preemergence
Summary of the method: as §1

rice = assay: Test C flooded paddy test; type: in vivo, Oryza sativa; conditions: for Plant response rating, Rice: 500 g ai/ha, visual rating after 12 to 14 days
Summary of the method: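 Postemergence sprays applied to plants 2 to 18 cm tall (1- to 4-leaf stage); paddy species grown to 2-leaf stage under flooding. After 12 to 14 days in greenhouse, visual rating versus untreated controls on 0–100 scale (0 no effect, 100 complete control).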

barnyardgrass [1] = assay: Test B flooded paddy test; type: in vivo, Echinochloa crus-galli; conditions: 1000 g ai/ha, scale 0 to 100 (0 no effect, 100 complete control)
Summary of the method: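 Visual ratings, 0 (no effect) to 100 (complete control), made versus controls after 13–15 d greenhouse. Paddy plants treated at 2-leaf stage; postemergence plants at 1- to 4-leaf stage, 2–18 cm tall.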

barnyardgrass [2] = assay: Test C flooded paddy test; type: in vivo, Echinochloa crus-galli; conditions: for Plant response rating, Barnyardgrass: 500 g ai/ha, visual rating after 12 to 14 days
Summary of the method: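 Visual rating, 0 (no effect) to 100 (complete control), vs. controls at 12–14 d in greenhouse. Postemergence: 1–4-leaf plants, 2–18 cm. Paddy: flooded, barnyardgrass at 2-leaf stage.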

[3] = 125 g ai/ha, scale 0 (no effect) to 100 (complete control), visual, 12 to 14 days
[4] = Preemergence, 500 g ai/ha, scale 0 to 100, 0 no effect, 100 complete control
[5] = postemergence, 125 g ai/ha, visual rating, scale 0 (no effect) to 100 (complete control)
[6] = 62 g ai/ha, preemergence, scale 0 to 100
[7] = 125 g ai/ha, scale 0 (no effect) to 100 (complete control), visual, 12 to 14 days, preemergence
[8] = 250 g ai/ha, scale 0-100, preemergence
[9] = 62 g ai/ha, scale 0 to 100 (0 no effect, 100 complete control)
[10] = 125 g ai/ha, scale 0 to 100 (0 no effect, 100 complete control)
[11] = 250 g ai/ha, scale of 0 to 100, 0 is no effect, 100 is complete control
[12] = scale 0 to 100 (0 no effect, 100 complete control)
[13] = 500 g ai/ha, scale 0 to 100 (0 no effect, 100 complete control), visual, 12 to 14 days
[14] = postemergence, 500 g ai/ha, scale 0 to 100, 0 is no effect, 100 is complete control
[15] = 500 g ai/ha, scale 0 to 100 (0 no effect, 100 complete control), visual, 12 to 14 days, preemergence
[16] = 125 g ai/ha, visual rating, scale 0 (no effect) to 100 (complete control), postemergence
[17] = 500 g ai/ha, scale 0 to 100, 0 no effect, 100 complete control, preemergence
[18] = Postemergence, 500 g ai/ha, scale 0 (no effect) to 100 (complete control)

Row | Structure (SMILES) | Plant response rating, Cupgrass, Woolly (woolly cupgrass; 62 g ai/ha, scale 0 to 100) | Plant response rating, Cupgrass, Woolly (woolly cupgrass; 250 g ai/ha, scale 0-100) | Plant response rating, Nutsedge, Yellow (yellow nutsedge; 62 g ai/ha, scale 0 to 100) | Plant response rating, Nutsedge, Yellow (yellow nutsedge; 250 g ai/ha, scale 0-100) | Plant response rating, Nightshade (eastern black nightshade; [6]) | Plant response rating, Nightshade (eastern black nightshade; [8]) | Plant response rating, Crabgrass, Large (large crabgrass; 62 g ai/ha, scale 0 to 100) | Plant response rating, Crabgrass, Large (large crabgrass; 250 g ai/ha, scale 0-100) | Rice plant response rating (rice; [10]) | Rice plant response rating (rice; [11]) | Plant response rating, Rice (rice; [12]) | Barnyardgrass plant response rating (barnyardgrass [2]; [9]) | Barnyardgrass plant response rating (barnyardgrass [2]; [10]) | Barnyardgrass plant response rating (barnyardgrass [2]; [11]) | Plant response rating, Barnyardgrass (barnyardgrass [2]; [12]) | Plant response rating, Cupgrass, Woolly (woolly cupgrass; [13]) | Plant response rating, Nutsedge, Yellow (yellow nutsedge; [13]) | Plant response rating, Nightshade (eastern black nightshade; [15]) | Plant response rating, Crabgrass, Large (large crabgrass; [13]) | Barnyardgrass plant response rating (barnyardgrass [1]) | other results
1 | CCNC(=O)c1ccc(F)c(NC(=O)c2cn(C(C)(C)C)nc2CC)c1 [Compound 193] | 10 | 60 | 0 | 10 | 0 | 85 | 40 | 85 | 50 | 70 | 75 | 30 | 55 | 85 | 90 | – | – | – | – | – | Plant response rating, Cupgrass, Woolly (woolly cupgrass; [3]): 40; Cupgrass, Woolly plant response rating (woolly cupgrass; [4]): 70; Plant response rating, Nutsedge, Yellow (yellow nutsedge; [3]): 0; Nutsedge, Yellow plant response rating (yellow nutsedge; [4]): 60; Wheat plant response rating (wheat; [5]): 10; Wheat plant response rating (wheat; postemergence, 500 g ai/ha, visual rating, scale 0 (no effect) to 100 (complete control)): 10; Plant response rating, Nightshade (eastern black nightshade; [7]): 50; Nightshade plant response rating (eastern black nightshade; [4]): 100; Plant response rating, Crabgrass, Large (large crabgrass; [3]): 85; Crabgrass, Large plant response rating (large crabgrass; [4]): 100; Rice plant response rating (rice; [9]): 25; Barnyardgrass plant response rating (barnyardgrass [1]; visual rating, 13 to 15 days): 80
2 | CCn1nc(C(C)(C)C)cc1C(=O)Nc1cc(C(=O)N(C)OC)ccc1F [Compound 244] | 65 | 85 | 0 | 0 | 100 | 100 | 100 | 100 | 70 | 75 | 75 | 0 | 70 | 75 | 80 | 95 | 0 | 100 | 100 | 90 | Plant response rating, Cupgrass, Woolly (woolly cupgrass; [3]): 65; Plant response rating, Nutsedge, Yellow (yellow nutsedge; [3]): 0; Wheat plant response rating (wheat; [5]): 10; Wheat plant response rating (wheat; [14]): 20; Plant response rating, Nightshade (eastern black nightshade; [7]): 100; Plant response rating, Crabgrass, Large (large crabgrass; [3]): 100; Rice plant response rating (rice; [9]): 40
3 | CCn1nc(C(C)(C)C)cc1C(=O)Nc1ccc(OC)c(OC)c1 [Compound 298] | 5 | 30 | 0 | 20 | 100 | 100 | 85 | 100 | 60 | 65 | 75 | 15 | 50 | 65 | 90 | 60 | 30 | 100 | 100 | 90 | Plant response rating, Cupgrass, Woolly (woolly cupgrass; [3]): 10; Plant response rating, Nutsedge, Yellow (yellow nutsedge; [3]): 0; Wheat plant response rating (wheat; [16]): 20; Wheat plant response rating (wheat; [14]): 30; Plant response rating, Nightshade (eastern black nightshade; [7]): 100; Plant response rating, Crabgrass, Large (large crabgrass; [3]): 95; Rice plant response rating (rice; 62 g ai/ha, scale 0 to 100): 45
4 | CCn1nc(C2(C)CC2)cc1C(=O)Nc1cc(C(=O)N2CC=CC2)ccc1F [Compound 301] | 10 | 70 | 0 | 10 | 90 | 100 | 90 | 100 | 55 | 75 | 85 | 50 | 75 | 90 | 95 | 90 | 20 | 100 | 100 | 90 | Plant response rating, Cupgrass, Woolly (woolly cupgrass; [3]): 50; Plant response rating, Nutsedge, Yellow (yellow nutsedge; [3]): 5; Wheat plant response rating (wheat; [16]): 10; Wheat plant response rating (wheat; [14]): 20; Plant response rating, Nightshade (eastern black nightshade; [7]): 95; Plant response rating, Crabgrass, Large (large crabgrass; [3]): 100; Rice plant response rating (rice; 62 g ai/ha, scale 0 to 100): 50
5 | C=CCNC(=O)c1cccc(NC(=O)c2nn(C(C)C)nc2CC)c1 [Compound 382] | 0 | 20 | 0 | 25 | 95 | 95 | 95 | 100 | 55 | 70 | 75 | 10 | 25 | 65 | 75 | 40 | 60 | 100 | 100 | 80 | Plant response rating (0 = no effect, 100 = complete control), Cupgrass, Woolly (woolly cupgrass; 125 g ai/ha): 0; Plant response rating (0 = no effect, 100 = complete control), Nutsedge, Yellow (yellow nutsedge; 125 g ai/ha): 0; Wheat plant response rating (wheat; [16]): 0; Wheat plant response rating (wheat; [17]): 80; Wheat plant response rating (wheat; [18]): 10; Plant response rating (0 = no effect, 100 = complete control), Crabgrass, Large (large crabgrass; 125 g ai/ha): 100; Rice plant response rating (rice; 62 g ai/ha, scale 0 to 100): 20
6 | CCc1nn(C(C)C)nc1C(=O)Nc1cccc(C(=O)N(C)CC)c1 [Compound 386] | 50 | 95 | 0 | 40 | 90 | 95 | 98 | 100 | 65 | 70 | 75 | 30 | 50 | 80 | 95 | 95 | 60 | 100 | 100 | 90 | Plant response rating (0 = no effect, 100 = complete control), Cupgrass, Woolly (woolly cupgrass; 125 g ai/ha): 90; Plant response rating (0 = no effect, 100 = complete control), Nutsedge, Yellow (yellow nutsedge; 125 g ai/ha): 10; Wheat plant response rating (wheat; [16]): 0; Wheat plant response rating (wheat; [17]): 100; Wheat plant response rating (wheat; [18]): 0; Plant response rating (0 = no effect, 100 = complete control), Nightshade (eastern black nightshade; 125 g ai/ha, preemergence): 95; Plant response rating (0 = no effect, 100 = complete control), Crabgrass, Large (large crabgrass; 125 g ai/ha): 100; Rice plant response rating (rice; 62 g ai/ha, scale 0 to 100): 25
